In US6114310A, “Efflux pump inhibitors” (priority 1998, dated 2000):

Tested on: Pseudomonas aeruginosa PAM1001
Test: microbe, parasite or virus in culture
Type: cell-based
Procedure: The activity of efflux pump inhibitors (EPI) in combination with fluoroquinolones, such as levofloxacin, is assessed by the checkerboard assay (Antimicrobial Combinations. In Antibiotics in Laboratory Medicine, Ed. Victor Lorian, M. D., Fourth edition, 1996, pp 333-338) using broth microdilution method performed as recommended by the NCCLS (National Committee for Clinical Laboratory Standards (NCCLS). 1997. Methods for Dilution of Antimicrobial Susceptibility Tests for Bacteria That Grow Aerobically--Fourth Edition; Approved Standard. NCCLS Document M7-A4, Vol 17 No.2). The test organism used is Pseudomonas aeruginosa PAM1001.
In this assay, multiple dilutions of two drugs, namely the EPI and levofloxacin, are being tested, alone and in combination, at concentrations equal to, above and below their respective minimal inhibitory concentrations (MICs).
Stock solutions are further diluted, according to the needs of a particular assay, in Mueller Hinton Broth (MHB). Stock solution can be stored at -80° C. Quinolones are solubilized according to the instructions of the manufacturers, at a concentration of 1 mg/ml. They are then further diluted in MHB. Stock solution can be stored at -80° C.
The checkerboard assay is performed in microtiter plates. Levofloxacin is diluted in the x axis, each column containing a single concentration of levofloxacin. The EPI is diluted in the y axis, each row containing an equal concentration of EPI. The result of these manipulations is that each well of the microtiter plate contains a unique combination of concentrations of the two agents. Each EPI are tested independently.
The assay is performed in MHB with a final bacterial inoculum of 5×10^5 CFU/ml (from an early-log phase culture). Microtiter plates are incubated during 20 h at 35° C. and are read using a microtiterplate reader (Molecular Devices) at 650 nm as well as visual observation using a microtiterplate reading mirror.

[1] = Table 1, EPI Conc. μg/ml (number not given; column between 10 and 40 μg/ml)
[2] = Table 2, EPI Conc. μg/ml (number not given; column between 10 and 40 μg/ml)
[3] = Table 3, EPI Conc. μg/ml (number not given; column between 10 and 40 μg/ml)
[4] = Table 4, EPI Conc. μg/ml (number not given; column between 10 and 40 μg/ml)

Substance | Levofloxacin MIC Against P. aeruginosa PAM1001 in Presence of Efflux Pump Inhibitor (EPI), Minimum Inhibitory Concentration (Table 1, EPI Conc. 0 μg/ml) [µg/mL] | Levofloxacin MIC Against P. aeruginosa PAM1001 in Presence of Efflux Pump Inhibitor (EPI), Minimum Inhibitory Concentration (Table 1, EPI Conc. 0.625 μg/ml) [µg/mL] | Levofloxacin MIC Against P. aeruginosa PAM1001 in Presence of Efflux Pump Inhibitor (EPI), Minimum Inhibitory Concentration (Table 1, EPI Conc. 5 μg/ml) [µg/mL] | Levofloxacin MIC Against P. aeruginosa PAM1001 in Presence of Efflux Pump Inhibitor (EPI), Minimum Inhibitory Concentration (Table 1, EPI Conc. 10 μg/ml) [µg/mL] | Levofloxacin MIC Against P. aeruginosa PAM1001 in Presence of Efflux Pump Inhibitor (EPI), Minimum Inhibitory Concentration (Table 1, EPI Conc. 40 μg/ml) [µg/mL] | Levofloxacin MIC Against P. aeruginosa PAM1001 in Presence of Efflux Pump Inhibitor (EPI), Minimum Inhibitory Concentration [1] [µg/mL] | Levofloxacin MIC Against P. aeruginosa PAM1001 in Presence of Efflux Pump Inhibitor (EPI), Minimum Inhibitory Concentration (Table 2, EPI Conc. 0 μg/ml) [µg/mL] | Levofloxacin MIC Against P. aeruginosa PAM1001 in Presence of Efflux Pump Inhibitor (EPI), Minimum Inhibitory Concentration (Table 2, EPI Conc. 0.625 μg/ml) [µg/mL] | Levofloxacin MIC Against P. aeruginosa PAM1001 in Presence of Efflux Pump Inhibitor (EPI), Minimum Inhibitory Concentration (Table 2, EPI Conc. 5 μg/ml) [µg/mL] | Levofloxacin MIC Against P. aeruginosa PAM1001 in Presence of Efflux Pump Inhibitor (EPI), Minimum Inhibitory Concentration (Table 2, EPI Conc. 10 μg/ml) [µg/mL] | Levofloxacin MIC Against P. aeruginosa PAM1001 in Presence of Efflux Pump Inhibitor (EPI), Minimum Inhibitory Concentration (Table 2, EPI Conc. 40 μg/ml) [µg/mL] | Levofloxacin MIC Against P. aeruginosa PAM1001 in Presence of Efflux Pump Inhibitor (EPI), Minimum Inhibitory Concentration [2] [µg/mL] | Levofloxacin MIC Against P. aeruginosa PAM1001 in Presence of Efflux Pump Inhibitor (EPI), Minimum Inhibitory Concentration (Table 3, EPI Conc. 0 μg/ml) [µg/mL] | Levofloxacin MIC Against P. aeruginosa PAM1001 in Presence of Efflux Pump Inhibitor (EPI), Minimum Inhibitory Concentration (Table 3, EPI Conc. 0.625 μg/ml) [µg/mL] | Levofloxacin MIC Against P. aeruginosa PAM1001 in Presence of Efflux Pump Inhibitor (EPI), Minimum Inhibitory Concentration (Table 3, EPI Conc. 5 μg/ml) [µg/mL] | Levofloxacin MIC Against P. aeruginosa PAM1001 in Presence of Efflux Pump Inhibitor (EPI), Minimum Inhibitory Concentration (Table 3, EPI Conc. 10 μg/ml) [µg/mL] | Levofloxacin MIC Against P. aeruginosa PAM1001 in Presence of Efflux Pump Inhibitor (EPI), Minimum Inhibitory Concentration (Table 3, EPI Conc. 40 μg/ml) [µg/mL] | Levofloxacin MIC Against P. aeruginosa PAM1001 in Presence of Efflux Pump Inhibitor (EPI), Minimum Inhibitory Concentration (Table 3, EPI Conc. […]) [µg/mL] | Levofloxacin MIC Against P. aeruginosa PAM1001 in Presence of Efflux Pump Inhibitor (EPI), Minimum Inhibitory Concentration [3] [µg/mL] | Levofloxacin MIC Against P. aeruginosa PAM1001 in Presence of Efflux Pump Inhibitor (EPI), Minimum Inhibitory Concentration (Table 4, EPI Conc. 0 μg/ml) [µg/mL] | also measured
D-Lysyl-β-N-(Cyclopropylmethyl)alanine Quinoline-2-amide Trifluoroacetate [Example 29] | 4 | 4 | 1 | 0.125 | 0.125 | 0.125 | 4 | 4 | 0.125 | 0.06 | 0.06 | 0.06 | 4 | 4 | 2 | 0.25 | 0.008 | 4 | 0.03 | 4 | Levofloxacin MIC Against P. aeruginosa PAM1001 in Presence of Efflux Pump Inhibitor (EPI), Minimum Inhibitory Concentration (Table 4, EPI Conc. 0.625 μg/ml): 4 µg/mL; Levofloxacin MIC Against P. aeruginosa PAM1001 in Presence of Efflux Pump Inhibitor (EPI), Minimum Inhibitory Concentration (Table 4, EPI Conc. 5 μg/ml): 0.06 µg/mL; Levofloxacin MIC Against P. aeruginosa PAM1001 in Presence of Efflux Pump Inhibitor (EPI), Minimum Inhibitory Concentration (Table 4, EPI Conc. 10 μg/ml): 0.015 µg/mL; Levofloxacin MIC Against P. aeruginosa PAM1001 in Presence of Efflux Pump Inhibitor (EPI), Minimum Inhibitory Concentration (Table 4, EPI Conc. 40 μg/ml): 0.015 µg/mL; Levofloxacin MIC Against P. aeruginosa PAM1001 in Presence of Efflux Pump Inhibitor (EPI), Minimum Inhibitory Concentration [4]: 0.015 µg/mL
D-Ornithyl-β-(N-cyclohexylmethyl)alanine 2-naphthylamide [Compound 17 (Table 3)] | 4 | 4 | 0.06 | 0.06 | 0.015 | 0.03 | 4 | 4 | 4 | 0.50 | 0.015 | 0.06 | 4 | 4 | 2 | 0.50 | 0.125 | 4 | 0.125 | 4 | Levofloxacin MIC Against P. aeruginosa PAM1001 in Presence of Efflux Pump Inhibitor (EPI), Minimum Inhibitory Concentration (Table 1, EPI Conc. […]): 4 µg/mL; Levofloxacin MIC Against P. aeruginosa PAM1001 in Presence of Efflux Pump Inhibitor (EPI), Minimum Inhibitory Concentration (Table 2, EPI Conc. […]): 4 µg/mL; Levofloxacin MIC Against P. aeruginosa PAM1001 in Presence of Efflux Pump Inhibitor (EPI), Minimum Inhibitory Concentration (Table 4, EPI Conc. 0.625 μg/ml): 4 µg/mL; Levofloxacin MIC Against P. aeruginosa PAM1001 in Presence of Efflux Pump Inhibitor (EPI), Minimum Inhibitory Concentration (Table 4, EPI Conc. 5 μg/ml): 4 µg/mL; Levofloxacin MIC Against P. aeruginosa PAM1001 in Presence of Efflux Pump Inhibitor (EPI), Minimum Inhibitory Concentration (Table 4, EPI Conc. 10 μg/ml): 2 µg/mL; Levofloxacin MIC Against P. aeruginosa PAM1001 in Presence of Efflux Pump Inhibitor (EPI), Minimum Inhibitory Concentration (Table 4, EPI Conc. 40 μg/ml): 0.125 µg/mL; Levofloxacin MIC Against P. aeruginosa PAM1001 in Presence of Efflux Pump Inhibitor (EPI), Minimum Inhibitory Concentration (Table 4, EPI Conc. […]): 4 µg/mL; Levofloxacin MIC Against P. aeruginosa PAM1001 in Presence of Efflux Pump Inhibitor (EPI), Minimum Inhibitory Concentration [4]: 1 µg/mL
D-Ornithyl-β-(N-phenylpropyl)alanine 2-naphthylamide [Compound 20 (Table 3)] | 4 | 4 | 4 | 2 | 0.25 | 1 | 4 | 4 | 2 | 1 | 0.03 | 0.50 | 4 | 4 | 2 | 0.50 | 0.015 | 4 | 0.03 | 4 | Levofloxacin MIC Against P. aeruginosa PAM1001 in Presence of Efflux Pump Inhibitor (EPI), Minimum Inhibitory Concentration (Table 1, EPI Conc. […]): 4 µg/mL; Levofloxacin MIC Against P. aeruginosa PAM1001 in Presence of Efflux Pump Inhibitor (EPI), Minimum Inhibitory Concentration (Table 2, EPI Conc. […]): 4 µg/mL; Levofloxacin MIC Against P. aeruginosa PAM1001 in Presence of Efflux Pump Inhibitor (EPI), Minimum Inhibitory Concentration (Table 4, EPI Conc. 0.625 μg/ml): 4 µg/mL; Levofloxacin MIC Against P. aeruginosa PAM1001 in Presence of Efflux Pump Inhibitor (EPI), Minimum Inhibitory Concentration (Table 4, EPI Conc. 5 μg/ml): 2 µg/mL; Levofloxacin MIC Against P. aeruginosa PAM1001 in Presence of Efflux Pump Inhibitor (EPI), Minimum Inhibitory Concentration (Table 4, EPI Conc. 10 μg/ml): 2 µg/mL; Levofloxacin MIC Against P. aeruginosa PAM1001 in Presence of Efflux Pump Inhibitor (EPI), Minimum Inhibitory Concentration (Table 4, EPI Conc. 40 μg/ml): 1 µg/mL; Levofloxacin MIC Against P. aeruginosa PAM1001 in Presence of Efflux Pump Inhibitor (EPI), Minimum Inhibitory Concentration (Table 4, EPI Conc. […]): 4 µg/mL; Levofloxacin MIC Against P. aeruginosa PAM1001 in Presence of Efflux Pump Inhibitor (EPI), Minimum Inhibitory Concentration [4]: 2 µg/mL
